# Measurements as given in ChEMBL document CHEMBL3044551, “Synthesis of optically active N-(2-pyridyloxiran-2-ylmethyl) benzenesulfonamide derivatives and their herbicidal activity” (Biosci Biotechnol Biochem, 2001).
# Calls of active or inactive are those of the source. The rule behind the calls is not given here.
# Columns and labels:
# Oryza sativa [1] = assay: Toxicity in two-leaf stage Oryza sativa (rice) plants exposed to compound 3 days post transplantation assessed as phytotoxicity scores at 0.5 kg ai/ha measured 2 weeks post compound treatment; type: organism-based; conditions: in vivo, 336 h
# Oryza sativa [2] = assay: Toxicity in direct seeded Oryza sativa (rice) plants assessed as phytotoxicity scores at 0.5 kg ai/ha measured 2 weeks post compound treatment; type: organism-based; conditions: in vivo, 336 h
# Cyperus serotinus = assay: Herbicidal activity against Cyperus serotinus exposed to compound at 1.5 to 2 leaf stage assessed as herbicidal rate scores at 0.5 kg ai/ha measured 2 weeks post compound treatment by pot test; type: functional
# [3] = system: Schoenoplectiella juncoides; assay: Herbicidal activity against Schoenoplectiella juncoides exposed to compound at 1.5 to two-leaf stage assessed as herbicidal rate scores at 0.5 kg ai/ha measured 2 weeks post compound treatment by pot test; type: functional
# Rotala indica = assay: Herbicidal activity against Rotala indica exposed to compound at 1.5 to 2 leaf stage assessed as herbicidal rate scores at 0.5 kg ai/ha measured 2 weeks post compound treatment by pot test; type: functional
# Echinochloa oryzicola [4] = assay: Herbicidal activity against Echinochloa oryzicola exposed to compound at 1.5 to two-leaf stage assessed as herbicidal rate scores at 0.5 kg ai/ha measured 2 weeks post compound treatment by pot test; type: functional
# Echinochloa oryzicola [5] = assay: Herbicidal activity against germinated Echinochloa oryzicola assessed as inhibition of above-ground shoot length growth after 7 days post compound treatment by petri dish test; type: functional; conditions: for EC50: 168 h, read-out: ED50 (the source's name)
SMILES,Activity (Oryza sativa [1]),Activity (Oryza sativa [2]),Activity (Cyperus serotinus),Activity [3],Activity (Rotala indica),Activity (Echinochloa oryzicola [4]),ED50 (Echinochloa oryzicola [5]),EC50 (Echinochloa oryzicola [5]) [µg/mL]
Cc1cc(S(=O)(=O)N(C)C[C@@]2(c3cccc(Cl)n3)CO2)ccc1Cl,0,0,2,0,2,1,inactive,–
CN(CC1(c2cccc(Cl)n2)CO1)S(=O)(=O)c1ccc2c(c1)CCCC2 (racemic),0,0,8,2,10,8,–,0.11
CN(C[C@@]1(c2cccc(Cl)n2)CO1)S(=O)(=O)c1ccc2c(c1)CCCC2,0,0,0,0,0,0,inactive,–
CN(C[C@]1(c2cccc(Cl)n2)CO1)S(=O)(=O)c1ccc2c(c1)CCCC2,0,1,9,3,10,9,–,0.05
Cc1cc(S(=O)(=O)N(C)C[C@]2(c3cccc(Cl)n3)CO2)ccc1Cl,1,10,10,7,10,10,–,0.035
Cc1cc(S(=O)(=O)N(C)CC2(c3cccc(Cl)n3)CO2)ccc1Cl (racemic),0,10,9,4,9,10,–,0.07
